For one experiment, the target named is T1, HuR (Homo sapiens, UniProt Q15717).
T1 construct: expressed in transfected cells; host or cells: U251 glioma cells, doxycycline-inducible constructs
In words: cell-based split firefly luciferase-HuR dimerization assay. The conditions noted are these: for IC50: read-out: HuR IC50. As for the experimental part: (§1) The oncogenic activity of HuR is driven by subcellular localization into the cytoplasm and formation of multimers of HuR. To develop cell based assays to characterize the ability of small molecules to disrupt this process, a split luciferase assay detecting the formation of HuR dimers was developed. The assays were performed in 96 well plates with clear bottom (Corning Inc., Corning, NY). Cells with designed constructs (30,000-50,000 in number) were plated per well; the constructs were induced by doxycycline (0.75 ug/ml) for 48 hours. The evaluated compounds at different concentrations and the corresponding vehicle as the control were administered for 6 hours. The luminescence signals were detected by using InfinitiM200 plate reader (TECAN, Morrisville, NC) in the presence of the luciferase substrate luciferin (D-Luciferin, potassium salt), which was purchased from GoldBio (St Louis, MO). A multichannel pipette (XL 3000I™, Denville Scientific, South Plainfield, NJ) was used in all procedures to ensure the experiment quality.
The assay used the coding sequence of HuR in frame with the N-terminus of firefly luciferase or the C-terminus as depicted in FIG. 2A. When HuR forms dimers in this case, luciferase is generated and with luciferin present, luminescence is generated.
(§2) Squares represent luminescence signal from reporter representing HuR dimers (U251 cells co-expressing HuR-Nluc and HuR-Cluc constructs); circles represent luminescence signal from control reporter (U251 cells expressing Fluc construct). Results are shown as mean+SD.

Experiment [1] concerns U251 cells expressing Fluc construct. In words: control Fluc (full length luciferase) reporter assay in U251 cells. It counts as cell-based. The note with it: Homo sapiens, U-251, 6 h, read-out: Fluc Imax % Inh; for inhibition at 100 µM: Concn 100 uM; for inhibition at 50 µM: Concn 50 uM. Here is the method: as §1, with “quality. […]” for “quality.”
as §2
(In general: A reporter such as luciferase makes a cellular process visible.)

The mark [2] stands for this setting: split luciferase HuR dimerization assay, compounds administered for 6 hours.
The mark [3] stands for this setting: U251 cells co-expressing HuR-Nluc and HuR-Cluc, 6 hours of treatment.

Like-named read-outs stand apart in the source and are kept apart here.

T1 sequence (Q15717 whole entry): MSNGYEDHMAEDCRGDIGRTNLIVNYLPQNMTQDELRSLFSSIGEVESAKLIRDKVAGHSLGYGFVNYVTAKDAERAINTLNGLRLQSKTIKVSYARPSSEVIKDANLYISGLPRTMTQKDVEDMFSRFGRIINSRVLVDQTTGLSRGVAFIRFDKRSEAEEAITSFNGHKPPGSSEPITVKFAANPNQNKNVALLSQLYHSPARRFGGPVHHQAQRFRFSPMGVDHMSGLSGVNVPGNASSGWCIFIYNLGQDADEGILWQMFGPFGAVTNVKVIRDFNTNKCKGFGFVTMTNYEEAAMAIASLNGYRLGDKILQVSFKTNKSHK

A word on the IC50: it is the point on the concentration scale where inhibition reaches its midpoint. Turning to `CN(c1ccc2ncc(-c3ccccc3)n2n1)C1CCOCC1` [Compound 14, N-Methyl-3-phenyl-N-(tetrahydro-2H-pyran-4-yl)imidazo[1,2-b]pyridazin-6-amine], the IC50 on HuR (setting [2]) turned out to be 23 µM. As for `Cc1cc(-c2cnn3c(NC[C@H]4C[C@@](C)(O)C4)cc(Oc4cccnc4)nc23)ccc1C(=O)NC1CC1` [SRI-41646], the “HuR N/C Imax % Inh” value on HuR (Concn 100 uM) is 3%. For the same molecule, the IC50 at HuR (setting [3]) was greater than 100 µM. Moreover, the inhibition at 100 µM in experiment [1] came out at 15%. For the molecule `c1cncc(-c2cnc3ccc(NC4CCOCC4)nn23)c1` [Compound 8], on HuR (setting [2]), the IC50 is greater than 30 µM. Consider `O=C(c1ccc(=O)[nH]c1)N1CCN(C(=O)C2CC2c2ccccc2)CC1` (stereo not shown) [SRI-43653], for which, on HuR (Concn 50 uM), the “HuR N/C Imax % Inh” value amounted to 0%. Further, in experiment [1], the inhibition at 50 µM worked out at 0%. On to `CN(c1ccc2ncc(-c3ccc4cn[nH]c4c3)n2n1)C1CCCCC1` [Compound 22, N-Cyclohexyl-3-(1H-indazol-6-yl)-N-methylimidazo[1,2-b]pyridazin-6-amine], for which the “HuR N/C Imax % Inh” value on HuR (Concn 50 uM) was determined as 93%. Moreover, the IC50 at HuR (setting [3]) and on HuR (setting [2]) was 9 µM throughout. The inhibition at 50 µM in experiment [1] was determined as 32%. Consider `CC(=O)c1n[nH]c2ccc(-c3cnc4ccc(N(C)C5CCOCC5)nn34)cc12` [Compound 54, 1-(5-(6-(Methyl(tetrahydro-2H-pyran-4-yl)amino)imidazo[1,2-b]pyridazin-3-yl)-1H-indazol-3-yl)ethan-1-one], for which, on HuR (setting [2]), the IC50 is greater than 50 µM. As for `OCc1ccccc1-c1cnc2ccc(NC3CCOCC3)nn12` [Compound 7], the IC50 at HuR (setting [2]) was greater than 100 µM. `O=C(c1ccc2nsnc2c1)N1CCN(C(=O)C2CC2c2cccs2)CC1` (stereo not shown) [SRI-43650]: the “HuR N/C Imax % Inh” value at HuR (Concn 50 uM) was 0%. In addition, the inhibition at 50 µM in experiment [1] was 0%. `COc1ccc(-c2[nH]ncc2C(=O)NCC2CC2)cc1Cl` [SRI-43649]: the “HuR N/C Imax % Inh” value on HuR (Concn 50 uM) is on record as 0%. The inhibition at 50 µM in experiment [1] amounted to 0%.

In the case of `Clc1ccc2ncc(-c3ccc4cn[nH]c4c3)n2n1` [SRI-43183], the “HuR N/C Imax % Inh” value on HuR (Concn 100 uM) came to 76%. In experiment [1], the inhibition at 100 µM was found to be 20%.

For `Cc1n[nH]c2cc(-c3cnc4ccc(NC5CCOCC5)nn34)ccc12` [Compound 31, 3-(3-Methyl-1H-indazol-6-yl)-N-(tetrahydro-2H-pyran-4-yl)imidazo[1,2-b]pyridazin-6-amine], on HuR (setting [2]), the IC50 is greater than 50 µM. Consider `c1cc2[nH]ncc2cc1-c1cnc2ccc(N3CCOCC3)nn12` [Compound 51, 4-(3-(1H-Indazol-5-yl)imidazo[1,2-b]pyridazin-6-yl)morpholine], for which the “HuR N/C Imax % Inh” value on HuR (Concn 50 uM) stood at 87%. Further, the IC50 at HuR (setting [3]) and on HuR (setting [2]) was 7 µM in each case. Besides, the inhibition at 50 µM in experiment [1] came to 27%. Take `c1cc2cc(-c3cnc4ccc(NC5CCOCC5)nn34)ccc2o1` [Compound 10]: on HuR (setting [2]), the IC50 was greater than 30 µM. For the molecule `CN(c1ccc2ncc(-c3ccc4[nH]cnc4c3)n2n1)C1CCOCC1` [Compound 37, 3-(1H-Benzo[d]imidazol-5-yl)-N-methyl-N-(tetrahydro-2H-pyran-4-yl)imidazo[1,2-b]pyridazin-6-amine], the “HuR N/C Imax % Inh” value at HuR (Concn 50 uM) was found to be 87%. Also, the IC50 at HuR (setting [3]) and at HuR (setting [2]) was 8 µM throughout. In addition, in experiment [1], the inhibition at 50 µM turned out to be 14%. Consider `CN(c1ccc2ncc(-c3ccc4cnn(C)c4c3)n2n1)C1CCOCC1` [Compound 21, N-Methyl-3-(1-methyl-1H-indazol-6-yl)-N-(tetrahydro-2H-pyran-4-yl)imidazo[1,2-b]pyridazin-6-amine], for which, at HuR (Concn 50 uM), the “HuR N/C Imax % Inh” value turned out to be 71%. Besides, the IC50 at HuR (setting [3]) and at HuR (setting [2]) was 3.4 µM each time. Also, in experiment [1], the inhibition at 50 µM was 28%. `CCCN(C)c1ccc2ncc(-c3ccc4c(C)n[nH]c4c3)n2n1` [Compound 33, N-Methyl-3-(3-methyl-1H-indazol-6-yl)-N-propylimidazo[1,2-b]pyridazin-6-amine]: the IC50 on HuR (setting [2]) is 25 µM. For the molecule `CN1CCC(N(C)c2ccc3ncc(-c4ccc5cn[nH]c5c4)n3n2)CC1` [Compound 25, 3-(1H-Indazol-6-yl)-N-methyl-N-(1-methylpiperidin-4-yl)imidazo[1,2-b]pyridazin-6-amine], the IC50 on HuR (setting [2]) was greater than 50 µM.

Regarding `Brc1cnc2ccc(NC3CCOCC3)nn12` [SRI-42219], at HuR (Concn 50 uM), the “HuR N/C Imax % Inh” value was determined as 82%. At HuR (setting [3]), the IC50 lay within 20 to 22 µM. Further, the inhibition at 50 µM in experiment [1] worked out at 32%. Consider `FC(F)(F)c1nnc2ccc(NCCc3c[nH]c4ccccc34)nn12` [SRI-41639], for which the “HuR N/C Imax % Inh” value at HuR (Concn 100 uM) was determined as 49%. For the same molecule, on HuR (setting [3]), the IC50 was greater than 100 µM. In experiment [1], the inhibition at 100 µM was determined as 17%.

Regarding `CCCN(C)c1ccc2ncc(-c3cccc4cnccc34)n2n1` [Compound 17, 3-(Isoquinolin-5-yl)-N-methyl-N-propylimidazo[1,2-b]pyridazin-6-amine], the IC50 at HuR (setting [2]) is greater than 50 µM. With `COc1ccc(-c2cnc3ccc(NC4CCCCC4)nn23)cc1` [Compound 15], the IC50 on HuR (setting [2]) was greater than 30 µM. Take `c1ccc(-c2cnc3ccc(NC4CCOCC4)nn23)cc1` [Compound 11]: at HuR (setting [2]), the IC50 is 18 µM. `Cc1nn(C)c2ccc(-c3cnc4ccc(N(C)C5CCOCC5)nn34)cc12` [Compound 44, 3-(1,3-Dimethyl-1H-indazol-5-yl)-N-methyl-N-(tetrahydro-2H-pyran-4-yl)imidazo[1,2-b]pyridazin-6-amine]: the “HuR IC50” value on HuR (setting [2]) is on record as “Insoluble”. With `c1cnc2cc(-c3cnc4ccc(NC5CCOCC5)nn34)ccc2n1` [Compound 12], the IC50 on HuR (setting [2]) turned out to be 12 µM. For `CC(=O)Nc1cccc(-c2cnc3ccc(NC4CCOCC4)nn23)c1` [Compound 9], the IC50 on HuR (setting [2]) was greater than 30 µM. Turning to `Cc1nn(C)c2ccc(-c3cnc4ccc(NC5CCOCC5)nn34)cc12` [Compound 43, 3-(1,3-Dimethyl-1H-indazol-5-yl)-N-(tetrahydro-2H-pyran-4-yl)imidazo[1,2-b]pyridazin-6-amine], on HuR (setting [2]), the “HuR IC50” value was “Insoluble”. For `CCCN(C)c1ccc2ncc(-c3cccc(N(C)C)c3)n2n1` [Compound 16, 3-(3-(Dimethylamino)phenyl)-N-methyl-N-propylimidazo[1,2-b]pyridazin-6-amine], the IC50 at HuR (setting [2]) is greater than 50 µM. Take `Cc1nn(C)c2cc(-c3cnc4ccc(N(C)C5CCOCC5)nn34)ccc12` [Compound 35, 3-(1,3-Dimethyl-1H-indazol-6-yl)-N-methyl-N-(tetrahydro-2H-pyran-4-yl)imidazo[1,2-b]pyridazin-6-amine]: the IC50 on HuR (setting [2]) is greater than 50 µM.

As for `Cc1nn(C)c2cc(-c3cnc4ccc(NC5CCOCC5)nn34)ccc12` [Compound 34, 3-(1,3-Dimethyl-1H-indazol-6-yl)-N-(tetrahydro-2H-pyran-4-yl)imidazo[1,2-b]pyridazin-6-amine], on HuR (setting [2]), the half-inhibitory concentration (IC50) was found to be 40 µM. For `CCCN(C)c1ccc2ncc(-c3cnc4[nH]ncc4c3)n2n1` [Compound 56, N-Methyl-N-propyl-3-(1H-pyrazolo[3,4-b]pyridin-5-yl)imidazo[1,2-b]pyridazin-6-amine], the inhibition at 50 µM in experiment [1] was found to be 5%. Consider `CCCN(C)c1ccc2ncc(-c3ccc4c(C)nn(C)c4c3)n2n1` [Compound 36, 3-(1,3-Dimethyl-1H-indazol-6-yl)-N-methyl-N-propylimidazo[1,2-b]pyridazin-6-amine], for which, on HuR (setting [2]), the IC50 was greater than 50 µM. As for `c1cc2cn[nH]c2cc1-c1cnc2ccc(N(CC3CC3)C3CCOCC3)nn12` [Compound 28, N-(Cyclopropylmethyl)-3-(1H-indazol-6-yl)-N-(tetrahydro-2H-pyran-4-yl)imidazo[1,2-b]pyridazin-6-amine], at HuR (setting [2]), the IC50 was greater than 50 µM. Take `CS(=O)(=O)c1ccc(-c2cnc3ccc(NC4CCOCC4)nn23)cc1` [Compound 6]: the IC50 at HuR (setting [2]) was greater than 30 µM.

(Values after patent US12435091B2, “RNA-binding protein multimerization inhibitors and methods of use thereof” (THE UAB RESEARCH FOUNDATION, priority 2020, dated 2025).)
